Data from patent US10071164B2, “Estrogen-related receptor alpha based protac compounds and associated methods of use” (Yale University, priority 2014, dated 2018).
Values belong to the compound of their own block, whether it stands above or below them.

What was measured:
[1] = molecular target: estrogen related receptor alpha (ERRα) (Homo sapiens, UniProt P11474); settings: FIG. 5
Text: [drawing 18] on the degradation of estrogen related receptor alpha (ERRα).

VHL = VHL (Homo sapiens, UniProt P40337); experiment: VHL binding (stereocenter inversion); settings: inversion of stereocenter(s) of the VHL ligand
RIPK2 = RIPK2 (Homo sapiens, UniProt O43353); experiment: In vitro RIPK2 ubiquitination, reconstituted ubiquitination cascade; format: biochemical; settings: quenched 15 min after initiation, PAGE and autoradiography
Description: Ubiquitination reactions were performed in three stages. In the first stage, RIPK2 (final 500 nM) was incubated for 10 min at room temperature with [^32P]g-ATP in kinase buffer (25 mM Tris pH 7.5, 50 mM KCl, 2 mM Mg(CH3CO2)2, 2 mM MnCl2, 2 mM DTT) to radiolabel RIPK2 through auto-phosphorylation. In the second stage, ubiquitination buffer (25 mM Tris pH 7.5, 5 mM MgCl2, 100 mM NaCl, 2 mM ATP, 0.1 mg/ml BSA, and 2 mM DTT) was added to complete auto-phosphorylation, and then VHL (final 250 nM) and indicated PROTACs (various concentrations) were added to the mixture to allow ternary complex formation. In parallel, UbE1 (final 25 nM), Ubc4 (final 250 nM), and ubiquitin (final 116 μM) were mixed in ubiquitination buffer to allow charging of the E2 enzyme with activated ubiquitin. In stage three of the reaction, the RIPK2-PROTAC-VHL and UbE1-Ubc4˜Ub mixtures were combined, and incubated at room temperature for various times before being quenched with Sample Buffer containing 5% b-mercaptoethanol. Ubiquitinated RIPK2 was then separated by 4-15% SDS-PAGE and imaged using a PhosphoImager Screen overnight.
RIPK2 was labeled by autophosphorylation and then incubated with the indicated concentrations of PROTAC and the reconstituted ubiquitination cascade. Samples were quenched 15 min after initiation of the reaction, and imaged by PAGE and autoradiography. RIPK2-Ubn is indicated.

THP-1 cells = experiment: Trypan Blue cell viability assay; format: cell-based; settings: 16 hours
Description: FIG. 13 is a cell viability graph illustrating that PROTAC_RIPK2 is not toxic to cells. THP-1 cells were treated with the indicated concentration sof PROTAC_RIPK2 or PROTAC_RIPK2_epi for 16 hours, followed by a Trypan Blue assay to determine cell viability. Error bars represent mean and S.D.

ERRα = molecular target: T1, ERRα (Homo sapiens, UniProt P11474); experiment: ERRα degradation in ST-486 cells; format: cell-based; parameters: degration of ERRα in either MCF-7 cells or ST-486 cells; endogenous in cells; host or cells: ST-486; settings: ST486, column C, read-out: ERRα Degradation Dmax (Estimated) ST-486 cells
T1 sequence (P11474 1-423): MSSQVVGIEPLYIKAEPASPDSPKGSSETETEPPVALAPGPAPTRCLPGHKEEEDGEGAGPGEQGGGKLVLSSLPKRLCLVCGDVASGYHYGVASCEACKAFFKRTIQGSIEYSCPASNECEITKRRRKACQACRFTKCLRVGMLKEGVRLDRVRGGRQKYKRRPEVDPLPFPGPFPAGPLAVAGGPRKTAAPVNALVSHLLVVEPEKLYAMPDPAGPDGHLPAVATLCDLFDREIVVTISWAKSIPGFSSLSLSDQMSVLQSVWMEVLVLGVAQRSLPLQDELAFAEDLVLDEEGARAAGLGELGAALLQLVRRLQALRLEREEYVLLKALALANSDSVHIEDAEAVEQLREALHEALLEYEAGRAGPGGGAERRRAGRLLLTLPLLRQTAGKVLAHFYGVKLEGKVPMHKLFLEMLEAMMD
Description: Using the methods as described herein, the following exemplary PROTAC compounds were prepared (see Table below). The exemplary compounds were also assayed for their ability to effectuate the degration of ERRα in either MCF-7 cells or ST-486 cells. Thus, in certain embodiments, the description provides the compounds below, including compositions comprising effective amount of a compound as listed below or a derivative, analog, or a prodrug of the same, in combination with at least one of a pharmaceutically acceptable carrier, another active agent, including a second PROTAC molecule as described herein or a combination thereof. In additional embodiments, the disclosure provides a method of treating a disease or condition in a subject in need thereof, comprising administering a composition comprising an effective amount of a compound listed below, wherein the composition is effective for treating or ameliorating a symptom of the disease or condition.
Legend for following table: A=ERRα Degradation Dmax (Estimated) MCF-7 cells; B=ERRα Degradation DC50 (Estimated) MCF-7 cells; C=ERRα Degradation Dmax (Estimated) ST-486 cells; D=ERRα Degradation DC50 (Estimated) ST-486 cells

Sequence of RIPK2 (O43353 whole entry, species assumed): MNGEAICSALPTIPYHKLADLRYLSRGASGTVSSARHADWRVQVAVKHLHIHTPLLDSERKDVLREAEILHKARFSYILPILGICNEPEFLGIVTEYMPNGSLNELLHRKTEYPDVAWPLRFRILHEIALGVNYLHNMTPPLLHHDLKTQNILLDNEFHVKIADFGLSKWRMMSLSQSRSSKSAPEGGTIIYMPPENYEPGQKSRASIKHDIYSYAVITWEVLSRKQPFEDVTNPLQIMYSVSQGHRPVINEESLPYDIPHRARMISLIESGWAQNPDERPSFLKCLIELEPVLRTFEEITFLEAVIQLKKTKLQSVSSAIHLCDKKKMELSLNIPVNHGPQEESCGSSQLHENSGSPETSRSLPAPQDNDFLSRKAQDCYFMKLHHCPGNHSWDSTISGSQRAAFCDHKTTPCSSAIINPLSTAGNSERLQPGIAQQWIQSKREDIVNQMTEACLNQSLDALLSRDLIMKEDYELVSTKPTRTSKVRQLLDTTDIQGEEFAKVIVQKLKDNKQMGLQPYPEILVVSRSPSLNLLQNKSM
Sequence of RIPK2 (P40337 whole entry, species assumed, further chain): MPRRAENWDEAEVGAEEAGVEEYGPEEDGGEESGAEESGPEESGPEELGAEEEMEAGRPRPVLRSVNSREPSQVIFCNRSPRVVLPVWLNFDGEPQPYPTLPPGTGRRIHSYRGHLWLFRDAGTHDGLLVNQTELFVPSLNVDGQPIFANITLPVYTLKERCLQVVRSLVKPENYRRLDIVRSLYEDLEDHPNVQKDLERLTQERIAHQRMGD
Sequence of RIPK2 (Q15370 whole entry partner, species assumed): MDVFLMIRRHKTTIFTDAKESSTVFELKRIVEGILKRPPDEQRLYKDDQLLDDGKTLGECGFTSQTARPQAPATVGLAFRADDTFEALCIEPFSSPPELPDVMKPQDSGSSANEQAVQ
Sequence of RIPK2 (Q15369 whole entry partner, species assumed): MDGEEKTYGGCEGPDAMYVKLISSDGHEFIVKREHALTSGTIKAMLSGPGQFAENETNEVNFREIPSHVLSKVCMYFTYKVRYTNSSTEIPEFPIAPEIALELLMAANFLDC
Sequence of RIPK2 (Q13617 whole entry partner, species assumed): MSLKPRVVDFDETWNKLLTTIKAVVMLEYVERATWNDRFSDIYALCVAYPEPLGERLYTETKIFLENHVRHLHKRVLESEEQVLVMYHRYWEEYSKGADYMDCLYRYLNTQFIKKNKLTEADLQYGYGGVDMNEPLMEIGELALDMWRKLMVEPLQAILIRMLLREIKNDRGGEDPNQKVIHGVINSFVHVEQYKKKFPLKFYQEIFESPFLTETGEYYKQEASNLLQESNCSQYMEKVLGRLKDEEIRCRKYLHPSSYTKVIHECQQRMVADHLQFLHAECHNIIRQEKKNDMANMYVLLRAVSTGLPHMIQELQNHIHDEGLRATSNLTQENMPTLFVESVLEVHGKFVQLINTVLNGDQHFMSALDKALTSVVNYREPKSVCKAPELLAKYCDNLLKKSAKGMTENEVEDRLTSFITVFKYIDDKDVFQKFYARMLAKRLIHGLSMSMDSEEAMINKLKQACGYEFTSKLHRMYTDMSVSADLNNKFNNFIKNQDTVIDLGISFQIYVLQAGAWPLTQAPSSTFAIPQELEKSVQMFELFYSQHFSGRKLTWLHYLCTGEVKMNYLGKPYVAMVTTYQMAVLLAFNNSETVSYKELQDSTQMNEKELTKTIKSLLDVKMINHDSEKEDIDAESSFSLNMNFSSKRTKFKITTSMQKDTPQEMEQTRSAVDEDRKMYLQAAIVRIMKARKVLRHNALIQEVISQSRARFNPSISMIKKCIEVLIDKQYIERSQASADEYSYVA
Sequence of RIPK2 (P62877 whole entry partner, species assumed): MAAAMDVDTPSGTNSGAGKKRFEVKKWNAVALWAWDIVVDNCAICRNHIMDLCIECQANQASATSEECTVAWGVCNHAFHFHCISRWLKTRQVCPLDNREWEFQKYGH
Sequence of VHL (P40337 whole entry, species assumed): as the sequence (P40337 whole entry, species assumed, further chain) above
Sequence of VHL (Q15370 whole entry partner, species assumed): as the sequence (Q15370 whole entry partner, species assumed) above
Sequence of VHL (Q15369 whole entry partner, species assumed): as the sequence (Q15369 whole entry partner, species assumed) above

- effect on the degradation of estrogen related receptor alpha (ERRα) [1]: lack of effect
Structure (SMILES): COc1cc(/C=C2\SC(=O)NC2=O)ccc1Oc1ccc(C#N)cc1C(F)(F)F

- VHL binding (VHL): abolishes VHL binding
Structure (SMILES): COc1cc(/C=C2\SC(=O)N(CCOCCC(=O)N[C@H](C(=O)N3C[C@@H](O)C[C@H]3C(=O)NCc3ccc(-c4scnc4C)cc3)C(C)(C)C)C2=O)ccc1Oc1ccc(C#N)cc1C(F)(F)F [PROTAC_ERRα_epi]

- direct RIPK2 ubiquitination in vitro (RIPK2): mediates direct RIPK2 ubiquitination
Structure (SMILES): Cc1ncsc1-c1ccc(CNC(=O)[C@@H]2C[C@@H](O)CN2C(=O)[C@@H](NC(=O)COCCOCCOCCOCCOc2cc3nccc(Nc4ccc5scnc5c4)c3cc2S(=O)(=O)C(C)(C)C)C(C)(C)C)cc1 [PROTAC_RIPK2]
- cell viability (toxicity to cells) (THP-1 cells): not toxic

- Dmax (ERRα): 98%
Structure (SMILES): COc1cc(/C=C2\SC(=O)N(CCOCCC(=O)N[C@H](C(=O)N3C[C@H](O)C[C@H]3C(=O)NCc3ccc(-c4scnc4C)cc3)C(C)(C)C)C2=O)ccc1Oc1ccccc1C(F)(F)F [ARV N000414]
